Entries after “also recorded” stand apart in the source; their conditions may differ.
Assays:
HFKTs (KTN) = assay: Conditions improving HFKT reprogramming: validated iPSC colonies; assay type: cell-based, human; settings: for Validated iPSCs colonies: frozen virus, reduced virus concentration
[1] = tested on: HFKT-iPSC-CMs (β-adrenergic signaling pathway); assay: [Ca2+]i transients and contractions of HFKT-iPSC-derived cardiomyocytes; assay type: cell-based, human; settings: HFKT-iPSC-CMs clone KTR13, 37 day-old EB, stimulated at 0.6 Hz; effect within 2-3 min
Protocol: [Ca^2+]i transients and contractions were measured in small dissociated contracting areas of EBs by means of fura-2 fluorescence (Biotium, Hayward, Calif., USA) and a video edge detector, respectively, as previously described (Dolnikov et al. 2006; Sedan et al. 2008).
In order to investigate the basic properties of the intracellular Ca^2+ ([Ca^2+]i) handling machinery and the mechanical function, [Ca^2+]I transients and contractions were recorded from small contracting clusters of the HFKT-iPSC-CMs by means of fura-2 fluorescence and a video edge detector, respectively.

Row | SMILES | Validated iPSCs colonies (HFKTs (KTN); KTN + Cherry (3 reprogramming factors, no c-Myc)) | Validated iPSCs colonies (HFKTs (KTN); KTN + Stemcca (4 reprogramming factors)) | Generation of iPSCs with reduced number of factors (HFKTs (KTN); polycistronic vector with Oct4, Klf4 and Sox2, without c-Myc (cherry vector)) | Effect on [Ca2+]i transient and contraction amplitudes [1]
1 | Cc1c[nH]c(-c2cnc(NCCNc3ccc(C#N)cn3)nc2-c2ccc(Cl)cc2Cl)n1 [CHIR99021] | 6 | 2 | able to generate iPSCs with no c-Myc | –
2 | CC(C)NCC(O)c1ccc(O)c(O)c1 (stereo not shown) [isoproterenol] | – | – | – | marked concentration-dependent positive inotropic effect; also recorded: increase in contraction amplitude

From patent publication US20130130387A1, “METHOD FOR GENERATING INDUCED PLURIPOTENT STEM CELLS FROM KERATINOCYTES DERIVED FROM PLUCKED HAIR FOLLICLES” (Technion Research & Development Foundation Limited, priority 2010, published 2013)
